The record followed here is ChEMBL document CHEMBL2157974, “Viridin analogs derived from steroidal building blocks” (Bioorg Med Chem Lett, 2012).

A short description of data set [1]: Lipophilicity, log P of the compound. As to conditions: octanol/water. The format is physicochemical.
Data set [2] has as its target PI3-kinase p110-alpha/p85-alpha (Homo sapiens, UniProt P42336). Kind of data set: Inhibition of human recombinant P110alpha/p85alpha using phosphatidyl inositol as substrate after 1 hr by ADP-Glo Kinase assay. The format is protein-complex assay. (In general: In ADP-Glo the light output rises with the ADP produced.)
The test system of a further data set is MCF7. Kind of data set: Cytotoxicity against human MCF7 cells after 72 hrs by MTS/PMS assay. The format is functional, cell-based. Conditions: MCF7, 72 h.
The nature of data set [3]: Inhibition of PI3K.

PI3-kinase p110-alpha/p85-alpha, sequence (P27986 whole entry): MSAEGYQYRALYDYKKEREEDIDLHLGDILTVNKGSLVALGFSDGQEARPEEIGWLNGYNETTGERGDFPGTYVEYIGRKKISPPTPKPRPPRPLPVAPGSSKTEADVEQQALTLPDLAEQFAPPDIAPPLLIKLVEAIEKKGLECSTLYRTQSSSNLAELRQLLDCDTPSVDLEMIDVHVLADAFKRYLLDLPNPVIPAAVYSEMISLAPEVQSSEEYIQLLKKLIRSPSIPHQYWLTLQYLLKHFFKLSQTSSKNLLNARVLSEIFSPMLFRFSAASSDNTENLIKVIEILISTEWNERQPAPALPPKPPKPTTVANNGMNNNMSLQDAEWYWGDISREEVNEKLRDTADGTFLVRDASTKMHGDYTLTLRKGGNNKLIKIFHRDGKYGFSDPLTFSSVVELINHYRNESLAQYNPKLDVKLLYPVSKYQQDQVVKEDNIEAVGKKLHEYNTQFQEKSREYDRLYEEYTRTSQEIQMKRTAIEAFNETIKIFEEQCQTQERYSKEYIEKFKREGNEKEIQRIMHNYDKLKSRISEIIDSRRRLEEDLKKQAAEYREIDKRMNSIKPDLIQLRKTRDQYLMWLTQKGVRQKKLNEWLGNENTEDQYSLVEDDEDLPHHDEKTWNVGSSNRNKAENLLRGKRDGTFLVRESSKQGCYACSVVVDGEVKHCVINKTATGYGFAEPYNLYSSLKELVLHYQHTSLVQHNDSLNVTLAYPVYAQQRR
PI3-kinase p110-alpha/p85-alpha, sequence (P42336 whole entry): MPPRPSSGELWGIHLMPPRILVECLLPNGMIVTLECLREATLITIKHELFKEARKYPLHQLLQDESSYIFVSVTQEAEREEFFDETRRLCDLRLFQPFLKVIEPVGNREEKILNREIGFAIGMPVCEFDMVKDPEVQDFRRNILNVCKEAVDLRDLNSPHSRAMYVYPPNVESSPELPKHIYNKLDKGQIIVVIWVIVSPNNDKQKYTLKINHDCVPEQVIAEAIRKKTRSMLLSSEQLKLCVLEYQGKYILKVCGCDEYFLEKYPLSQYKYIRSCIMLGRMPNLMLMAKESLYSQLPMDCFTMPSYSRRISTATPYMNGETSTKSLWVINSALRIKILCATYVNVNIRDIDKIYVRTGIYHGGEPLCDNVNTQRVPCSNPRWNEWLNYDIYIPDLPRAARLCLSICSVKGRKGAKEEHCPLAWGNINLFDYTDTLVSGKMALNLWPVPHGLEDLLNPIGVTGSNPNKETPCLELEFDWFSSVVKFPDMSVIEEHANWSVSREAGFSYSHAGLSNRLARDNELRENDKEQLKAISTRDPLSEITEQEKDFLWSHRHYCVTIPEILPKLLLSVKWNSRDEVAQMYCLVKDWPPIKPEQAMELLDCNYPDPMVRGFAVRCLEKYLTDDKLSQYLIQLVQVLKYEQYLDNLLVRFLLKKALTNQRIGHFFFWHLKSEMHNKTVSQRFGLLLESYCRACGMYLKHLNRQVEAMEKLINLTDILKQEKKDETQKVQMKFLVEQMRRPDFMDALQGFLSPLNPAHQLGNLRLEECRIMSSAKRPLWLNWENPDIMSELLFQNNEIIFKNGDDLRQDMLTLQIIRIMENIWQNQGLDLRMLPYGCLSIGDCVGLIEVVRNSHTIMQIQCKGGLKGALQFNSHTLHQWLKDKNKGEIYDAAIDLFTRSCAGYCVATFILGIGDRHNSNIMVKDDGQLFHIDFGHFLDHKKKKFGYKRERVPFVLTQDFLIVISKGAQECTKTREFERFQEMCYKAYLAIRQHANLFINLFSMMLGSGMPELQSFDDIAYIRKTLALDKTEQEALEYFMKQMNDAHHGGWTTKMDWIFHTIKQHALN

Regarding `C[C@]12CCC(=O)c3coc(c31)C(=O)[C@@H]1[C@@H]2CC[C@]2(C)C(=O)CC[C@@H]12`, the logP (as a rule, the decadic logarithm of the partition coefficient of the neutral form, usually between octanol and water) in data set [1] came out at 2.65. The IC50 – broadly, the midpoint of a concentration-inhibition curve – in data set [2] worked out at 339 nM; in the data set on MCF7 it was 22.9 µM.
On to `C=CCN/C=C1/C(=O)CC[C@@]2(C)C1=C(O)C(=O)[C@@H]1[C@@H]2CC[C@]2(C)C(=O)CC[C@@H]12`, for which the IC50 is 271 nM in data set [2] and 37.7 µM with MCF7.
With `C[C@]12CCC(=O)c3coc(c31)C(=O)C[C@@H]2O` (racemic), the logP in data set [1] came out at 0.58. Besides, the IC50 in data set [2] is 178 nM; in the data set with MCF7 it was over 100 µM.
In turn, `CO[C@@H]1C(=O)c2coc3c2[C@@](C)(c2ccc4c(c2C3=O)CCC4=O)[C@@H]1O` [VIRIDIN] registered an IC50 in data set [3] of 2 nM.
Consider `COC[C@H]1OC(=O)c2coc3c2[C@@]1(C)C1=C(C3=O)[C@@H]2CCC(=O)[C@@]2(C)C[C@H]1OC(C)=O` [WORTMANNIN], for which the IC50 in data set [3] is 2 nM; with MCF7 it was over 100 µM.
